Data published in patent publication US5232917A, “Methods, compositions, and compounds for allosteric modulation of the GABA receptor by members of the androstane and pregnane series” (priority 1991, dated 1993).

Key:
[1] = system: metrazol induced convulsions; assay: Inhibition of metrazol induced convulsions (Table 2); type: in vivo, mice; details: Mus musculus; inhibition of metrazol induced convulsions; read-out: Anti-Metrazol ED50
Protocol: Experiments were also performed to determine the physiological relevance of these interactions by measuring the ability of the compound of and used in the invention to modulate TBPS-induced convulsions in Swiss-Webster mice. […] The time to onset of myoclonus (presence of forelimb clonic activity) induced by TBPS was determined by observing each mouse for a period of 45 minutes. Significant differences between the time to onset in control mice vs. steroid-treated mice were determined by Student's t-test. […] The number of animals with tonic and/or clonic convulsions was recorded. In the maximal electroshock test, 50 mA of current at 60 Hz was delivered through corneal electrodes for 200 msec to induce tonic seizure. […] The ED50 (the dose at which the half-maximal effect occurs) was determined for each screen.
Adult male CFI mice (20-30g) were used in these studies. […] Percent protection against metrazol-induced seizures was plotted against time after administration of the compound. […] Ten to twelve mice were used per dose of test drug. […] The number of animals with tonic and/or clonic convulsions was recorded. The ability of the steroid to abolish the tonic component was defined as the endpoint. Sedative potential was determined by a rotorod test where the number of mice staying on a rotating (6 rpm) rod for ≥1 min. in each of three trials was determined.

Rotorod test = details: mouse, in vivo, ip
Protocol: (§2) Adult male CFI mice (20-30g) were used in these studies. […] Ten to twelve mice were used per dose of test drug. […] Sedative potential was determined by a rotorod test where the number of mice staying on a rotating (6 rpm) rod for ≥1 min. in each of three trials was determined.

[2] = system: GABA receptor-chloride ionophore complex (GR complex); assay: Dissociation kinetics of [35S]TBPS in rat cerebral cortical membranes; type: binding; details: alphaxalone 300 nM, 3α-OH-DHP 20 nM
BZ receptor = assay: [3H]flunitrazepam binding to the BZ receptor in rat hippocampal homogenates; details: pentobarbital 1.0 mM; 0.25 nM [3H]FLU; no GABA; FIG. 3
[3] = system: GABA receptor complex (36Cl uptake, cerebral cortical synaptoneurosomes); assay: GABA-stimulated 36Cl uptake in rat cerebral cortical synaptoneurosomes; type: biochemical, rat (male Sprague-Dawley)
locomotor activity = assay: Locomotor activity in habituated mice; type: in vivo, mice (male N.I.H. Swiss-Webster)
Protocol: For evaluation of a drug's effects on general activity, mice were first habituated to the open-field apparatus for 15 min. The following day, mice were pretreated with a test drug and placed in the center of the activity chambers. The total distance traveled was measured for 10 min.
(§1) The vehicle control data were analyzed across test days using an 1-way analysis of variance (ANOVA). […] The dose-response curves were then analyzed using an 1-way ANOVA, followed by Dunnett's t-test for individual comparisons between doses and control. The open-field and habituated locomotor data were analyzed using ANOVA followed by Dunnett's t-test. […] All data is expressed as the mean±S.E.M.

punished responding = assay: Vogel conflict paradigm (lick suppression); type: in vivo, mice (male N.I.H. Swiss-Webster); details: 3α-OH-DHP 20 mg/kg
Text: An Anxio-Monitor (Omnitech Electronics, Columbus, Ohio) was used for measuring lick suppression. The testing chamber consisted of a clear plexiglass box (29 cm×29 cm×23 cm) with a metal drinking tube located 2.5 cm from the floor and extending 2 cm into the box. The shock was applied through the drinking spout and was controlled by the Anxio-Monitor. […] The reinforcer was 0.1M sucrose.
The conflict test procedure described by Vogel et al. (1980) was employed. This procedure is a modification of the original lick suppression test first described by Vogel et al. (1971). After 24 hr. of water deprivation,mice were allowed to explore the test apparatus and drink without punishment for 10 min. or 100 licks. […] Mice were allowed unpunished access to the drinking tube for 20 licks, thereafter, every 10th lick was punished with 0.1 mA shock. The test duration was 5 min.
as §1

[4] = system: maximal electroshock seizure; details: dissolved in DMSO; Belelli et al., 1989; cited from earlier work
[5] = system: metrazol-induced convulsions; details: dissolved in DMSO; Belelli et al., 1989; cited from earlier work
[6] = system: (+)bicuculline-induced seizures; details: dissolved in DMSO; Belelli et al., 1989; cited from earlier work
[7] = system: picrotoxin-induced convulsions; details: dissolved in DMSO; Belelli et al., 1989; cited from earlier work
[8] = system: strychnine-induced convulsions; details: dissolved in DMSO; Belelli et al., 1989; cited from earlier work
[9] = system: sedative potential (rotorod); details: dissolved in DMSO; Belelli et al., 1989; cited from earlier work
[10] = dissolved in DMSO; Belelli et al., 1989; cited from earlier work
[11] = system: sedative potential (rotorod); assay: Rotorod test; details: rotorod ED50 vs (+)bicuculline ED50
Protocol: as §2

[12] = Na pentobarbital 30 μM, 2 nM [35S]TBPS

C[C@]12CC[C@@H](O)C[C@@H]1CC[C@@H]1[C@@H]2CC[C@]2(C)[C@@H](C(=O)CO)CC[C@@H]12 [Example 5α-THDOC, 3α,21-dihydroxy-5α-pregnan-20-one]
ED50 [1]: 8 mg/kg | TD50 (Rotorod test): 22.9 mg/kg

CC(=O)[C@H]1CC[C@H]2[C@@H]3CC[C@H]4C[C@H](O)CC[C@]4(C)[C@H]3CC[C@]12C [Example 3α-OH-DHP, 3α-hydroxy-5α-pregnan-20-one]
Total percentage of specific sites, rapid (R) ([2]; Na pentobarbital 30 μM): 35 ± 3% | Total percentage of specific sites, slow (S) ([2]; Na pentobarbital 30 μM): 68 ± 3% | K-1, slowly dissociating component (S) [2, 12]: 0.011 ± 0.002 min⁻¹ | T1/2, rapidly dissociating component (R) [2, 12]: 6.4 ± 1 min | T1/2, slowly dissociating component (S) [2, 12]: 76 ± 11 min | biphasic dissociation mechanism of [35S]TBPS ([2]; pentobarbital 30 μM, FIGS. 2A, 2B): absent | interaction with pentobarbital in the enhancement of [3H]FLU binding (BZ receptor): does not interact | enhancement of GABA-stimulated 36Cl uptake above GABA alone ([3]; 3α-OH-DHP 500 nM alone, GABA 25 μM, FIG. 4): 60% | % enhancement of basal 36Cl uptake ([3]; GABA (25 μM) + 3α-OH-DHP (500 nM)): 194 ± 8% | effect on basal 36Cl uptake ([3]; steroid alone, no GABA): no effect | ED50 [1]: 5 mg/kg | total distance traveled, acclimated mice (locomotor activity; 3α-OH-DHP 20 mg/kg, controls 2061.2±157.7 cm, p<0.01): 5694.7±608.4 cm | effect on locomotor activity (locomotor activity; acclimated mice): significant increase in locomotor activity | increase in number of shocks received vs controls (punished responding; 5 min session, p=0.01, FIG. 14): 235.6% | number of shocks received (punished responding; controls […]): 13.9±2.1 | ED50 MES (maximal electroshock) [4]: > 300 mg/kg | ED50 MTZ (metrazol) [5]: 18.8 ± 1.1 mg/kg | ED50 BIC (bicuculline) [6]: 4.1 ± 1.7 mg/kg | ED50 PICRO (picrotoxin) [7]: 31.7 ± 1.1 mg/kg | ED50 STR (strychnine) [8]: > 300 mg/kg | ED50 RR (Rotorod) [9]: 40 to 100 mg/kg | LD50 [10]: > 500 mg/kg | sedative liability at anticonvulsant doses [11]: low
